Laboratory results: patent EP0965591A1, “(s)-3-methyl-1-(2-piperidino-phenyl)-1-butylamine, its salts, synthesis and use in the long term therapy of diabetes mellitus” (Boehringer Ingelheim Pharma KG, priority 1991, dated 1993)

Legend:
[1] = system: weiblichen Ratten; experiment: Blood-glucose-lowering effect in female rats; format: in vivo, Ratte; details: for blutzuckersenkende Wirkung: female rats, comparison of the two enantiomers
Text: Die beiden Enantiomeren dieser Verbindung, nämlich (S)(+)-2-Ethoxy-4-[N-[1-(2-piperidino-phenyl)-3-methyl-1-butyl]-aminocarbonylmethyl]benzoesäure (Code-Nr.: AG-EE 623 ZD) und (R) (-)-2-Ethoxy-4-[N-[1-(2-piperidino-phenyl)-3-methyl-1-butyl]aminocarbonylmethyl]benzoesäure (Code-Nr.: AG-EE 624 ZD), wurden auf ihre blutzuckersenkende Wirkung an weiblichen Ratten geprüft.

[2] = design: species or system Menschen; details: in vivo
Description: Dies wirkt sich z.B. bei Applikation einer Tablette mit 2 mg AG-EE 388 ZW bzw. einer Tablette mit 1 mg AG-EE 623 ZW an 12 bzw. 6 Probanden so aus, daß die Maximal-Konzentrationen 84 ± 25 bzw. 28 ± 18 ng/ml sowie die Konzentrationen nach 4 Stunden 19 ± 8 bzw. 0,7 ± 1,0 ng/ml, nach 5 Stunden 13 ± 6 bzw. 0,3 ± 0,7 ng/ml und nach 6 Stunden 10 ± 6 bzw. 0,3 ± 0,7 ng/ml betragen.

[3] = system: Menschen; experiment: Blood-glucose-lowering effect in human studies; format: in vivo
Text: Auf Grund dieser Ergebnisse an der Ratte erscheint für den Menschen die ausschließliche Verwendung von AG-EE 623 ZW geboten, wodurch die Dosis im Vergleich zur AG-EE 388 ZW-Dosis um 50 % reduziert werden kann. […] Darüber hinaus wurde jedoch bei den Human-Studien gefunden, daß AG-EE 623 ZW überraschende pharmakokinetische Eigenschaften aufweist, die auf Grund der AG-EE 388 ZW-Daten nicht vorhersehbar waren. AG-EE 623 ZW zeigt somit überraschende therapeutische Vorteile gegenüber dem Racemat AG-EE 388 ZW.

[4] = system: Ratten; experiment: Acute toxicity after a single oral dose in rats; format: in vivo; details: single 1000 mg/kg p.o., suspension in 1% Methylcellulose; 5 male and 5 female rats; 14 days observation

Compound	blutzuckersenkende Wirkung [1]	Plasma-Konzentrationen nach Racemat-Gabe [2]	Dauer der Wirkung ([1]; rat, blood-glucose-lowering effect) [Stunden]	Elimination [2]	Plasmaspiegel in Relation zur erzielten Blutzuckersenkung [2]	Wirkungsdauer [3]	verstorbene Tiere [4]
CCOc1cc(CC(=O)N[C@H](CC(C)C)c2ccccc2N2CCCCC2)ccc1C(=O)O [AG-EE 624 ZW, (R) (-)-2-Ethoxy-4-[N-[1-(2-piperidino-phenyl)-3-methyl-1-butyl]aminocarbonylmethyl]benzoesäure, reference compound]	das unwirksame Enantiomere	in unerwartet höheren Maximal- und Dauer-Spiegeln anwesend					
CCOc1cc(CC(=O)N[C@@H](CC(C)C)c2ccccc2N2CCCCC2)ccc1C(=O)O [AG-EE 623 ZW, (S)(+)-2-Ethoxy-4-[N-[1-(2-piperidino-phenyl)-3-methyl-1-butyl]-aminocarbonylmethyl]benzoesäure]	das wirksame Enantiomere		> 6	wesentlich schneller als das unwirksame Enantiomere, AG-EE 624 ZW, eliminiert	wesentlich niedrigere Plasmaspiegel	relativ lange Wirkungsdauer	kein Tier
